The values that follow come from patent publication US9433710B2, “Biocompatible implant” (LABORATORIS SANIFIT, S. L., priority 2011, dated 2016).

Molecules are shown by their SMILES.

In data set [1] the test system is RAW 264.7 cells. Put plainly: Cell proliferation assay (BrdU incorporation). The data set is classed as cell-based, mouse. The following applies: IP6 for 24 hours, BrdU for 6 h. The procedure: RAW cells 264.7 were seeded at a density of 2,500 cells/well in a 96-well plate and cultured for 24 h. After cell attachment, culture media was changed and different doses of IP6 were added. Cells were cultured for additional 24 hours and BrdU was added for the last 6 hours. Incorporation of BrdU was determinated by Cell Proliferation ELISA kit as described by the manufacturer.

Data set [2] has as its system RAW 264.7 cells. Put plainly: LDH cytotoxicity assay. The data set is classed as cell-based, mouse. The following applies: IP6 for 24 hours. The procedure:
RAW cells 264.7 were seeded at a density of 20,000 cells/cm2 in 24-well plate and cultured for 24 h. After cell attachment, culture media was changed and different doses of) IP6 were added. Cells were cultured for additional 24 hours and culture media was collected to test cytotoxicity (LDH activity). LDH cytotoxicity assay was performed using the Cytotoxicity Detection Kit according to the manufacturer's protocol. This colorimetric assay quantifies activity of LDH released from the cytosol of damaged cells into the supernatant and thus serves as an index of cell death.
Results were presented relative to the LDH activity in the media of control cells (low control, 0% of cell death) and of cells treated with 1% Triton X-100 (high control, 100% death) using the equation: Cytotoxicity (%)=(exp value−low control)/(high control−low control)*100. 3. Cell Proliferation Assay

For data set [3], the system named is human umbilical cord mesenchymal stem cells (hUC-MSCs). Put plainly: Real-time RT-PCR of osteoblast markers in hUC-MSCs under osteogenic conditions. The data set is classed as cell-based. The following applies: 4 μM IP6 for 19 days. The procedure: hUC-MSCs from two different donors were seeded (n=12) in 24-well plates and grown to confluence in growth media consisting of DMEM-LG supplemented with penicillin (50 IU/ml), streptomycin (50 μg streptomycin/mil) and 20% FBS. Cells were cultured at 37° C. in a humidified atmosphere of 5% CO2. At confluence (designated as day 0), cells were grown in differentiation media consisting of growth media supplemented with hydrocortisone (200 nM), ascorbic acid (50 μg/ml) and β-glycerophosphate (10 mM). Cell culture media, with or without IP6, was refreshed twice a week over a 19-day time period. The experimental procedure developed in example 5 was used. In this example, Real-time PCR was performed for two housekeeping genes: beta-actin, GAPDH; and four osteoblast markers: Runx2, Col1A, ALP and OC.

The subject of the next data set is bone resorption. The following applies: background statement; cited from earlier work.
For data set [4], the system named is RAW 264.7 cells. Briefly: Resorption pit assay on dentine discs. The data set is classed as cell-based, mouse. The conditions noted are these: 1 μM IP6 during osteoclastogenesis. The procedure: RAW 264.7 cells were seeded on dentine slices at a density of 20,000 cells/cm^2. To study the effect of IP6 on OCL formation cells were cultured with media containing 100 ng/mL RANKL and IP6 (1 μM) over the course of the entire experiment. To study the effect of IP6 on mature osteoclasts-like cells. OCLs were generated by dosing RAW 264.7 cells with RANKL over the course of 6 days and then treated with IP6 (1 μM) for 4 days. After the culturing period, cells were removed from the dentine slices by sonication in 0.1 N NaOH for 2 minutes, stained in hematoxylin for 40 seconds and washed in distilled water. The surface of each dentine slice was examined by light microscopy for evidence of lacunar resorption and quantitative analysis of the resorption area was performed with Image J software 1.44p (NIH, USA).

For data set [5] the following is noted: background statement; cited from earlier work.
The subject of data set [6] is RAW 264.7 cells. Put plainly: Real-time RT-PCR of osteoclast gene and functional markers. The data set is classed as cell-based, mouse. The conditions noted are these: RANKL-treated cells, 5 days. The procedure:
To examine the effect of IP6 on OCL formation, 20,000 cells/cm2 were seeded in 24-well plates and, after 24 h, the culture medium was replaced with media containing 100 ng/mL RANKL and different doses of IP6 (0.1, 1, 10, 100 μM). Treatments were added after changing the media every 48 h over the course of 5 days. The effect of IP6 on OCL formation was assessed by analysis of the number of TRAP-positive cells, gene expression levels of osteoclast and functional markers, resorption activity on dentin discs and actin ring formation.
Total RNA was isolated with Tripure from cells treated as describe above, following the instructions of the manufacturer. RNA was quantified using a spectrophotometer set at 260 nm (Nanodrop, Thermo Fisher Scientific Inc, US).
The same amount of total RNA ([…]) from each sample was reverse transcribed to cDNA at 37° C. for 60 minutes in a final volume of […], using High Capacity RNA to cDNA kit (Applied Biosystems, USA). Each cDNA was diluted 1/5 and aliquots, to avoid freezing and thawing cycles, were stored at −20° C. until the PCR reactions were carried out.
Real-time PCR was performed for two housekeeping genes: 18S rRNA, GAPDH; three osteoclast gene markers: TRAP, CalcR, CFMS; and four osteoclast functional markers: CtsK, MMP-9, Car2 and H+-ATPase.
Real-time PCR was performed in the Lightcycler 480® (Roche Diagnostics, Mannheim, Germany) using SYBR green detection. Each reaction contained 7 μl Lightcycler-FastStart DNA MasterPLUS SYBR Green I (containing Fast Start Taq polymerase, reaction buffer, dNTPs mix, SYBRGreen I dye and MgCl2), 0.5 μM of each, the sense and the antisense specific primers (Table 1) and 3 μl of the cDNA dilution in a final volume of 10 μl. The amplification program consisted of a preincubation step for denaturation of the template cDNA (5 min 95° C.), followed by 45 cycles consisting of a denaturation step (10 s 95° C.), an annealing step (10 s 60° C.) and an extension step (10 s 72° C.). After each cycle, fluorescence was measured at 72° C. A negative control without cDNA template was run in each assay.
To allow relative quantification after PCR, standard curves were constructed from standard reactions for each target and housekeeping genes. The crossing point readings for each of the unknown samples were used to calculate the amount of either the target or housekeeping relative to a standard curve, using the Second Derivative Maximum Method. Relative mRNA levels were calculated as the ratio of relative concentration for the target genes in the same sample using the Advanced Relative Quantification Method provided by the LightCycler 480 analysis software version 1.5 (Roche Diagnostics, Mannheim, Germany).

Data set [7] relates to RAW 264.7 cells. Put plainly: RANKL-induced osteoclast (OCL) formation, TRAP staining. The conditions noted are these: 5 days. The data set is classed as cell-based, mouse. The procedure: Osteoclast-like cells were generated in culture from RAW 264.7 cells. 20,000 cells/cm2 were seeded in 24-well plates and placed in the CO2 incubator overnight to allow the cells to attach to the surface. After 24 h, the culture medium was replaced with media containing 100 ng/mL RANKL. Osteoclasts were successfully generated by dosing with RANKL every 48 h over the course of 5 days. To confirm the generation of multinucleated osteoclast-like cells, the cultured cells were stained for the enzyme TRAP using the TRAP-staining kit, according to the manufacturer's instructions. TRAP is the enzyme that has been used as a marker of osteoclast function for more than 20 years. TRAP-positive multinucleated osteoclasts were visualized by light microscopy and photographed. Each OCL formation assay was performed at least 3 times. To examine the effect of IP6 on OCL formation, 20,000 cells/cm2 were seeded in 24-well plates and, after 24 h, the culture medium was replaced with media containing 100 ng/mL RANKL and different doses of IP6 (0.1, 1, 10, 100 μM). Treatments were added after changing the media every 48 h over the course of 5 days. The effect of IP6 on OCL formation was assessed by analysis of the number of TRAP-positive cells, gene expression levels of osteoclast and functional markers, resorption activity on dentin discs and actin ring formation.

`O=P(O)(O)O[C@H]1[C@H](OP(=O)(O)O)[C@@H](OP(=O)(O)O)[C@H](OP(=O)(O)O)[C@@H](OP(=O)(O)O)[C@H]1OP(=O)(O)O` [IP6, Myo-inositol-1,2,3,4,5,6-hexakisphosphate]: the “cell proliferation (BrdU)” value in the data set with RAW 264.7 cells [1] was “without affecting”. In addition, the “cell viability (LDH activity)” value in the data set on RAW 264.7 cells [2] is “without affecting”. In data set [3], the “ALP mRNA levels compared to the control group” value was “higher”, the “Col1A mRNA levels compared to the control group” value is listed as “lower”, the “OC mRNA levels compared to the control group” value is recorded as “higher” and the “Runx-2 mRNA levels compared to the control group” value is “higher”. Besides, the “osteoblast differentiation of hUC-MSCs” value in data set [3] is reported as “increases”. In addition, the “bone resorption in animal models of osteoporosis” value in the data set with bone resorption is “inhibitor of bone resorption”. In the data set on RAW 264.7 cells [4], the “RANKL-induced osteoclast bone resorption ability” value is listed as “inhibits”. Moreover, the hydroxyapatite dissolution entry in data set [5] is listed as “potent inhibitor”. In the data set with RAW 264.7 cells [6], the “MMP-9 mRNA levels” value was “decreased”, the “TRAP mRNA levels” value was “decreased”, the “calcitonin receptor mRNA levels” value is reported as “decreased” and the “cathepsin K mRNA levels” value is listed as “decreased”. For the same compound, the “osteoclastogenesis induced by RANKL” value with RAW 264.7 cells [7] (100 ng/mL RANKL) is recorded as “decreases”. Moreover, the “number of TRAP positive cells” value in the data set on RAW 264.7 cells [7] (RANKL-treated cells) is recorded as “decreased”.
